How the values were obtained:
Assay type in all cases: in vivo
[1] = test system: spontaneously hypertensive rats (SHR); experiment: Activity for inhibiting cardiac hypertrophy, oral administration to SHR (Experiment 1); settings: 5 mg/kg/day for 10 weeks
Protocol: The test compound: (4S)-1-methyl-3-[(2S)-2-[N-((1S)-1-ethoxycarbonyl-3-phenylpropyl)amino]propionyl]-2-oxo-imidazolidine-4-carboxylic acid hydrochloride was dissolved in distilled pure water and orally administered to spontaneously hypertensive rats (SHR) (4 weeks old age at the beginning of experiment, groups of 6 rats) at a dose of 5 mg/kg/day for 10 weeks.
Twenty-four hours after the final dosing, the SHR was killed by bleeding under ether anesthesia. The weight of heart was measured and the weight of heart per 100 g of body weight (relative heart weight) was calculated. After that, the heart was used for the measurement of cross sectional area of the heart.
Method for measurement of cross sectional area of heart is as follows:
(i) After weighing the excised heart, the excised heart was immersed in 10% neutral buffered formalin solution for about one week to fix said heart. The fixed heart was cut at a definitive region crossing the left and right ventricles to obtain a sample (thickness: about 2 mm). The sample was again immersed in a 10% neutral buffered formalin solution overnight, treated with paraffin in a usual manner (Note 1) and then stained with hematoxyin eosine (HE).
(ii) The microscopic image of the stained sample was examined by an image analyzer (Note 2) to give the ratio of the area of stained region to the area of unstained region (the latter area being the gap produced in preparing the sample).
(iii) The real area of the sample was obtained by an image analyzer and then multiplied by the ratio obtained in the above (ii) to give the cross sectional area of the heart.
[Note 1]: It is disclosed in "Byori Gijutsu Mannual" (Mannual for Pathorogical Technology) 3, Technology for Histopathorogical Preparation, ed. by Nippon Byori Gakkai, issued on Mar. 30, 1981 by Ishiyaku Shuppan K.K.
[Note 2]: Nikon three tube color television camera and Nikon Ruzex II, manufactured by Nippon Kogaku K.K.
The inhibitory ratio was calculated by the following equation: [formula]

[2] = test system: spontaneously hypertensive rats (SHR); experiment: Activity for inhibiting cardiac hypertrophy, intraperitoneal administration to SHR (Experiment 2); settings: 0.5 mg/kg/day for 10 weeks
Protocol: The test compound: (4S)-1-methyl-3-[(2S)-2-[N-((1S)-1-carboxy-3-phenylpropyl)amino]propionyl]-2-oxo-imidazolidine-4-carboxylic acid hydrochloride was dissolved in distilled pure water and intraperitoneally administered to spontaneously hypertensive rats (SHR) (4 weeks old age at the beginning of experiment, groups of 9 rats) at a dose of 0.5 mg/kg/day for 10 weeks.
Twenty-four hours after the final dosing, the SHR was killed by bleeding under ether anesthesia. The weight of heart was measured and the weight of heart per 100 g of body weight (relative heart weight) was calculated.

rats = experiment: Oral toxicity in rats; settings: 5 g/kg, observed for 5 days
Source text: Moreover, the compounds (I) of this invention have low toxicity.

[3] = SHR, versus non-administ. group

`CCOC(=O)[C@H](CCc1ccccc1)N[C@@H](C)C(=O)N1C(=O)N(C)C[C@H]1C(=O)O.Cl` [(4S)-1-methyl-3-[(2S)-2-[N-((1S)-1-ethoxycarbonyl-3-phenylpropyl)amino]propionyl]-2-oxo-imidazolidine-4-carboxylic acid hydrochloride] was tested, and the “Inhibition of cardiac hypertrophy (in words)” value ([1]; SHR) was “clear inhibition of cardiac hypertrophy”, the “Relative heart weight (weight of heart per 100 g of body weight)” value ([1]; SHR, groups of 6, non-administ. group 0.399 ± 0.01, * significant at 1% level) was 0.34 ± 0.01 g and the “Sectional area of heart” value ([1]; SHR, groups of 6, non-administ. group 66.8 ± 4.0, * significant at 1% level) was 57.9 ± 2.9 mm^2. For the same compound, the “Inhibitory ratio, relative heart weight” value [1, 3] was 13% and the “Inhibitory ratio, sectional area of heart” value [1, 3] was 13%.
In the case of `C[C@H](N[C@@H](CCc1ccccc1)C(=O)O)C(=O)N1C(=O)N(C)C[C@H]1C(=O)O.Cl` [(4S)-1-methyl-3-[(2S)-2-[N-((1S)-1-carboxy-3-phenylpropyl)amino]propionyl]-2-oxo-imidazolidine-4-carboxylic acid hydrochloride], the “Inhibition of cardiac hypertrophy (in words)” value [2] is reported as “clear inhibition of cardiac hypertrophy”, the “Relative heart weight (weight of heart per 100 g of body weight)” value ([2]; groups of 9, non-administ. group 0.36 ± 0.013, ** significant at 0.1% level) is reported as 0.33 ± 0.012 g and the “Inhibitory ratio, relative heart weight” value ([2]; versus non-administ. group) is reported as 8%.
In the case of `CCOC(=O)[C@H](CCc1ccccc1)N[C@@H](C)C(=O)N1C(=O)N(C)C[C@H]1C(=O)O` [(4S)-1-methyl-3-[(2S)-2-[N-((1S)-1-ethoxycarbonyl-3-phenylpropyl)amino]propionyl]-2-oxo-imidazolidine-4-carboxylic acid], the Mortality (rats) is reported as “no rats was died” and the “Inhibition of increase of heart weight (in words)” value ([1]; spontaneously hypertensive rats) is reported as “significantly inhibited increase of heart weight”.
For `C[C@H](N[C@@H](CCc1ccccc1)C(=O)O)C(=O)N1C(=O)N(C)C[C@H]1C(=O)O` [(4S)-1-methyl-3-[(2S)-2-[N-((1S)-1-carboxy-3-phenylpropyl)amino]propionyl]-2-oxo-imidazolidine-4-carboxylic acid], the Mortality (rats) was “no rats was died”.
